Reference: US20150265656A1, “HUMAN ENDOCRINE PROGENITORS FROM ADULT PANCREATIC TISSUE” (THE JOHNS HOPKINS UNIVERSITY, priority 2012, published 2015)
Peptide text beside a SMILES is read from it. * marks the point of attachment. Cbz = O=C(OCc1ccccc1)*

How the values were obtained:
[1] = tested on: NGN3+ cells in cultured adult human pancreatic tissue; test: % NGN3+ nuclei/cells in cultured pancreatic tissue (immunostaining); assay type: cell-based
Protocol: Human cadaveric pancreas tissue that had been enzymatically digested and subjected to density centrifugation (57) was received 2-3 days post mortem. In all experiments, stated replication refers to the number of cultures from individual organ donors unless otherwise defined. Islet purity varied between preparations from <10% to >90%. Pancreatic tissue was resuspended in 10 ml Miami Media 1A (Mediatech) supplemented with freshly prepared 0.01 g/L glutathione and cultured in low adhesion dishes at 37° C. for 4 days. Media was replaced every 2-3 days. Inhibition of γ-secretase was carried out by daily addition of N—[N-(3,5-Difluorophenacetyl-L-alanyl)]-S-phenylglycine t-butyl ester (DAPT, Tocris Biosciences) or 7-Amino-4-chloro-3-methoxyisocoumarin (JLK6, EMD Biosceinces). JAG-1 (ANASPEC), a 17-residue polypeptide corresponding to amino acids 188-204 of the Jagged-1 Notch ligand (58) and a negative control polypeptide comprised of scrambled JAG-1 amino acids were used at 47 μM. A second Notch ligand, Delta-like ligand 4 (D114)(R&D Systems) was used at 500 ng/ml. Inhibition of proteasome degradation was carried out with N-[(Phenylmethoxy)carbonyl]-L-leucyl-N-[(1S)-1-formyl-3-methylbutyl]-L-leucinamide (MG132, Tocris Bioscience) and (2R,3S,4R)-3-Hydroxy-2-[(1S)-1-hydroxy-2-methylpropyl]-4-methyl-5-oxo-2-pyrrolidinecarboxy-N-acetyl-L cysteine thioester (clasto-lactacystin beta-lactone, Tocris Bioscience). Inhibition of EGF receptor kinase was carried out with N-(3-Chlorophenyl)-6,7-dimethoxy-4-quinazolinanine hydrochloride (AG1478, Tocris Bioscience) and with N-(3-Chlorophenyl)-6,7-dimethoxy-4-quinazolinanine hydrochloride (Erlotinib, Cayman Chemical). STAT3 activation was blocked with a cell-permeable analog of the STAT3-SH2 domain-binding phosphopeptide (PpYLKTK-mts, EMD Biosciences).
Tissues stained for NGN3 expression were sectioned and stained as soon as possible after harvest. Freshly sectioned 5-8 micron frozen sections of islet preparation tissue were fixed for 5 min. in 4% paraformaldehyde (PFA) prepared in phosphate buffered saline (PBS), quenched for 5 min in 50 mM glycine in PBS then blocked in 5% donkey serum, 1% BSA in PBS for 30 min. at room temperature. 0.1 to 0.2% Triton-X100 was included for cytoplasmic and nuclear antigens, respectively. Primary antibodies were diluted in blocking buffer; mouse anti-CD133/1 (IgG1) and CD133/2 (IgG2b) unconjugated and conjugated to phycoerythrin (Miltenyi Biotec), mouse anti-cytokeratin 19 (CK19, Chemicon), guinea pig anti-swine insulin (Dako), rabbit anti-CPEP (LINCO), mouse anti-GLU (R&D Systems), goat anti-PDX1 (gift from Chris Wright), mouse anti-CgA (Dako); goat anti-amylase (AMY, Santa Cruz), mouse anti-NGN3 (Developmental Studies Hybridoma Bank, Iowa City, Iowa, hybridoma supernatant), rabbit anti-cleaved caspase-3 (Cell Signaling Technology), rabbit Ki67 (abcam), mouse anti-human E-cadherin (Invitrogen). BrdU and EdU detection were by kit from BD Bioscience and Invitrogen, respectively. Quantitative analysis of protein expression on frozen sections was carried out by imaging >800 nuclei in randomly selected fields for each treatment group. For analysis of CD133+ cells immediately after preparative fluorescent activated cell sorting (FACS), cells were immobilized, fixed and quenched directly on glass slides using a cytospin. For identification and quantification cells within pancospheres, spheres were fixed and stained similarly to tissue sections except all incubations and washes were overnight at 4° C. Stained pancospheres were mounted on coverslipped glass slides. For quantitative analyses, unbiased stereology (Stereo Investigator software) was used to estimate number of nuclei per pancosphere. Sectioned tissue and pancospheres were imaged by confocal microscopy through the Z-axis in a series of 1 micron optical sections using sequential acquisition mode. […] Mean % CPEP, % GLU and % CgA were calculated from a total of 17 pancospheres.

[2] = tested on: PTF1A mRNA; test: PTF1A mRNA level in cultured pancreatic tissue (quantitative RT-PCR); assay type: cell-based, human; conditions: 4 days of culture
Protocol: (§1) Human cadaveric pancreas tissue that had been enzymatically digested and subjected to density centrifugation (57) was received 2-3 days post mortem. In all experiments, stated replication refers to the number of cultures from individual organ donors unless otherwise defined. Islet purity varied between preparations from <10% to >90%. Pancreatic tissue was resuspended in 10 ml Miami Media 1A (Mediatech) supplemented with freshly prepared 0.01 g/L glutathione and cultured in low adhesion dishes at 37° C. for 4 days. Media was replaced every 2-3 days. […]
(§2) Human adult and fetal pancreas RNA was commercially prepared. […] Levels of HES 1, PTF1A, PDX1, NGN3 and CYCLOPHILLIN A were determined by using Taqman® gene expression assays Hs00172878_m1, Hs00603586_g1, Hs00426216_m1, Hs00360700_g1 and Hs99999904_m1, respectively. Mean levels (6 readings/sample) of genes of interest were normalized to mean levels of CYCLOPHILLIN A. MicroRNAs hsa-mir-15a, hsa-mir-15b, hsa-mir-16 and hsa-mir-195 levels were measured using sequence specific reverse transcriptase primers and TaqMan® detection reagents (Applied Biosystems). Mean levels (6 readings/sample) of miRNAs were normalized to mean levels of 18S rRNA (Applied Biosystems Ribosomal RNA Reagent). Significance of RTPCR data was determined by ANOVA with Bonferroni-Holm Post hoc testing.

[3] = tested on: HES1 mRNA; test: HES1 mRNA level in cultured pancreatic tissue (quantitative RT-PCR); assay type: cell-based, human; conditions: 4 days of culture
Protocol: as §1, §2

[4] = tested on: NGN3 mRNA; test: NGN3 mRNA level in cultured pancreatic tissue (quantitative RT-PCR); assay type: cell-based, human; conditions: 4 days of culture
Protocol: as §1, §2

[5] = tested on: pancospheres from CD133+/NGN3+ cells; test: Pancosphere endocrine maturation, hormone-expressing cells; assay type: cell-based, human; conditions: maturation media with 10 μM MPA
Protocol: To form pancospheres, CD133+ cells were resuspended at 2×10^5 cells/ml in HuES media [Knockout DMEM (Invitrogen), 10% Knockout Serum Replacement (Invitrogen), 10% Albumax, 10 ng/ml fibroblast growth factor 2 (FGF2), 1×Na pyruvate, and 1× non-essential amino acids] conditioned by overnight incubation on human SDEC cells (59, 60) and 1-2% Matrigel. Media was supplemented every 3-4 days for up to 21 days. Media was then changed to Maturation media [RPMI 1640, 0.5% BSA, 10 mM nicotinamide, 50 ng/ml human insulin like growth factor II (IGF II, R&D Systems)] for 7 days with addition of fresh nicotinamide and IGF II every 2 days without media change. IGF II was then slowly withdrawn by subsequent 50% media changes. […]
Tissues stained for NGN3 expression were sectioned and stained as soon as possible after harvest. […] Quantitative analysis of protein expression on frozen sections was carried out by imaging >800 nuclei in randomly selected fields for each treatment group. […] For identification and quantification cells within pancospheres, spheres were fixed and stained similarly to tissue sections except all incubations and washes were overnight at 4° C. […] For quantitative analyses, unbiased stereology (Stereo Investigator software) was used to estimate number of nuclei per pancosphere. […] Mean % CPEP, % GLU and % CgA were calculated from a total of 17 pancospheres.

## COc1cc2ncnc(Nc3cccc(Cl)c3)c2cc1OC.Cl [AG1478, N-(3-Chlorophenyl)-6,7-dimethoxy-4-quinazolinanine hydrochloride]
[1]; 3 nM AG1478, 4 days
  % NGN3+ cells, % of carrier control: 69.1%±7.3
[1]; 30 nM AG1478, 4 days
  % NGN3+ cells, % of carrier control: 62.3%±8.2

## C[C@H](NC(=O)Cc1cc(F)cc(F)c1)C(=O)N[C@H](C(=O)OC(C)(C)C)c1ccccc1 [DAPT, N—[N-(3,5-Difluorophenacetyl-L-alanyl)]-S-phenylglycine t-butyl ester]
[2]; 2 μM DAPT
  level of PTF1A mRNA, % of carrier control: 331.2%±10.8
[2]; 20 μM DAPT
  level of PTF1A mRNA, % of carrier control: 391.6%±28.8
[1]; 2 μM DAPT, 4 days
  % of cells expressing NGN3 protein, % of carrier control: 124%±1.1
[1]; 20 μM DAPT, 4 days
  % of cells expressing NGN3 protein, % of carrier control: 152.0%±2.2
[1]; DAPT together with D114
  effect on the D114-induced decrease of % NGN3+ cells: blocked
[3]; 2 μM DAPT
  level of HES1 mRNA, % of carrier control: 63.0%±3.3
[3]; 20 μM DAPT
  level of HES1 mRNA, % of carrier control: 55.4%±1.5
[4]; 2 μM DAPT
  level of NGN3 mRNA, % of carrier control: 927.4%±52.6
[4]; 20 μM DAPT
  level of NGN3 mRNA, % of carrier control: 1886.3%±102.4

## C#Cc1cccc(Nc2ncnc3cc(OCCOC)c(OCCOC)cc23)c1 [Erlotinib]
[1]; 0.25 μM Erlotinib, n=1, data not shown
  % NGN3+ cells: 31.0±4.8

## COc1oc(=O)c2cc(N)ccc2c1Cl [JLK6, 7-Amino-4-chloro-3-methoxyisocoumarin]
[1]; JLK6 treatment, 4 days
  effect on % of cells expressing NGN3 protein: No significant effect

## CC(C)C[C@@H](C=O)NC(=O)[C@H](CC(C)C)NC(=O)[C@H](CC(C)C)NC(=O)OCc1ccccc1 [MG132, N-[(Phenylmethoxy)carbonyl]-L-leucyl-N-[(1S)-1-formyl-3-methylbutyl]-L-leucinamide] (Cbz-Leu-Leu-Leu-aldehyde)
[1]; 1 μM MG132, 4 days
  % NGN3+ cells, % of carrier control: 182.8%±14.9
[1]; 10 μM MG132, 4 days
  % NGN3+ cells, % of carrier control: 478.8%±33.6
[1]; 20 μM MG132, 4 days
  % NGN3+ cells, % of carrier control: 533.6%±28.9

## COc1c(C)c2c(c(O)c1C/C=C(\C)CCC(=O)O)C(=O)OC2 [MPA, Mycophenolic acid]
[5]; carrier control 0.58%±0.2, P>0.05
  % cells GLU+ in pancospheres: 1.1%±0.23
[5]; carrier control 1.0±0.3
  % cells CPEP+ in pancospheres: 2.9%±0.4

## D114: Notch ligand Delta-like ligand 4 (R&D Systems)
[1]; 500 ng/ml, data not shown
  % of NGN3+ cells, percent of carrier control: 60.1%±11.4

## EGF: EGF receptor ligand added to culture (NSDSECPLSHDGYCLHDGVCMYIEALDKYACNCVVGYIGERCQYRDLKWWELR; Epidermal growth factor; UniProt P01133 971-1023, looked up)
[1]; addition of EGF 20 ng/ml
  change of % NGN3+ cells: failed to significantly change

## JAG-1 peptide: 17-residue polypeptide corresponding to amino acids 188-204 of the Jagged-1 Notch ligand (DDYYYGFGCNKFCRPRD; UniProt P78504 188-204, looked up, fragment)
[1]; 47 μM, 4 days
  % of cells expressing NGN3 protein, % of cells treated with scrambled peptide (SJAG): 39.0%±6.5

## TGFα: EGF receptor ligand added to culture
[1]; addition of TGFα 40 ng/ml
  change of % NGN3+ cells: failed to significantly change
